Patent US12358907B2, “Substituted pyrrolidine amides III” (GRÜNENTHAL GMBH, priority 2019, dated 2025)
Like-named read-outs stand apart in the source and are kept apart here.

Tests used:
[1] = biological target: human glucocorticoid receptor (Homo sapiens (Human), UniProt P04150); experiment: Human glucocorticoid receptor (hGR) ligand-binding assay (3H-dexamethasone competition, IM9 cytosol); settings: read-out: % inhibition hGR at 1 μM
Procedure: Preferably, the glucocortitcoid receptor extracted from cytosol of IM9 cells is used for competitive radioligand binding assays to calculate percentage inhibition of the binding of radiolabeled ligand 3H-dexamethasone at the human glucocorticoid receptor.
The human lymphoblast cell line IM9 (ATCC, Bethesda, MD) was cultivated in RPMI 1640 media containing 10% fetal bovine serum, penicillin (100 U/ml), streptomycin (100 μg/ml), and 2 mM L-glutamine at 37° and 7% CO2 in a humidified incubator. Cells were centrifuged for 10 minutes at 1500 g and were washed in PBS and repelleted. Cell were then resuspended in homogenization buffer consisting of: 10 mM TES, 10 mM sodium molybdate, 1 mM EDTA, pH 7.4, 20 mM 2-mercaptoethanol, and 10% glycerol. Disruption of the cells was performed by nitrogen cavitation using 2×15 minutes at 600 to 750 psi nitrogen in a N2 cavitator at 0° C. The cell preparation was then centrifuged at 27,000 g for 15 minutes, and the resultant supernatant (=cytosol of IM9 cells) was centrifuged at 103,000 g for 60 minutes at 4° C. The amount of protein in the supernatant fraction was determined using a BCA assay kit and aliquots were snap frozen in a dry ice-acetone bath and stored at −70° C. Competitive binding assays were done in duplicate in homogenization buffer with a total volume of 200 μl. To this end, 1 mg of IM9 cytosol, 0.05 μCi (1.5 nM) of 3H-dexamethasone and unlabeled Example compounds as competitor compounds at 1 μM were mixed. The reaction was stopped after incubation at 0° C. for 16 to 18 hours by the addition of 100 μl of a charcoal-dextran mixture (2% activated charcoal, 0.5% dextran in 10 mM Tris, 1 mM EDTA, pH 7.4). Another incubation step at 0° C. for 10 minutes followed before the samples were centrifuged for 5 minutes at 8200 g. 100 μl of the supernatant) was finally assayed for radioactivity by liquid scintillationspectrometry, and percentage inhibition of 3H-dexamethasone binding was calculated.

[2] = biological target: glucocorticoid receptor (GAL4 DBD-GR) (Homo sapiens (Human), UniProt P04150); experiment: GR cell-based assays (GRE agonist / GRE antagonist), CHO-Gal4/GR luciferase reporter
In short: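 CHO cells stably carrying GAL4 DBD-GR ligand-binding-domain fusion and a GAL4-UAS firefly luciferase reporter were treated in Opti-MEM with 8 half-log concentrations from 10 μM to 0.003 μM (0.5% DMSO, quadruplicates). Antagonist mode measured repression of beclomethasone-induced signal. Luminescence after lysis gave EC50 or IC50.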

Chain of human glucocorticoid receptor (P04150 whole entry): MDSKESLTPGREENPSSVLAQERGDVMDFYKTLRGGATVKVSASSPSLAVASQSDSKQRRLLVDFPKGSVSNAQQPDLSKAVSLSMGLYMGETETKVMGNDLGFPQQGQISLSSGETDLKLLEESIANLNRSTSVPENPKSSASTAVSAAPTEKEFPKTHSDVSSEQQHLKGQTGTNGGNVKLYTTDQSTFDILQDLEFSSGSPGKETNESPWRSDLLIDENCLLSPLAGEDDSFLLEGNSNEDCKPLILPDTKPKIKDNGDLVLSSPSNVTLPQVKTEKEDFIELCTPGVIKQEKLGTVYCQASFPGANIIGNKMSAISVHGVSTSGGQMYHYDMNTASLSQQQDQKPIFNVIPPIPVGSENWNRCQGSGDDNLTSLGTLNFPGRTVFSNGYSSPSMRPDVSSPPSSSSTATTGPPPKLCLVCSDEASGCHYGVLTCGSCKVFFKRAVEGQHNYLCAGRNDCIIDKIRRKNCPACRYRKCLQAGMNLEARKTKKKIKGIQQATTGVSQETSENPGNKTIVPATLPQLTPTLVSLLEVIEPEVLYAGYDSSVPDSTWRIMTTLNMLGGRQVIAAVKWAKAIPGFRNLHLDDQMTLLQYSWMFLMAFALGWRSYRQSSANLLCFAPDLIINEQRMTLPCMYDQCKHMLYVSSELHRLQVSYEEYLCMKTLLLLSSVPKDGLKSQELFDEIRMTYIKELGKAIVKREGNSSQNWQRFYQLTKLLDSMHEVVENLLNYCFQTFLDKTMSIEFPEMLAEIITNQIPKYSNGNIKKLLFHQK
Chain of glucocorticoid receptor (GAL4 DBD-GR) (P04150 524-758): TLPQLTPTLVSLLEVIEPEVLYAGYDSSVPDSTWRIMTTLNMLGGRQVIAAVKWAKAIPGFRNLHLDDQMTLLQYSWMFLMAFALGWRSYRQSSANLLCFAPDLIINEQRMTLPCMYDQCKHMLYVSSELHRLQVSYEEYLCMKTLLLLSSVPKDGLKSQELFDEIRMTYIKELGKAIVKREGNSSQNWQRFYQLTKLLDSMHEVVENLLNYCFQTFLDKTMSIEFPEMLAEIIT

Row | SMILES | inhibition at 1 µM [1] [%] | IC50 ([2]; CHO-Gal4/GR reporter cells, agonist mode (EC50) or antagonist mode against beclometasone (IC50), 6 hour incubation) [nM] | IC50 ([2]; read-out: IC50 or EC50) [nM]
1 | CC1(C)C(=O)N(c2ccc3c(cnn3-c3ccc(F)cc3)c2)[C@H](c2ccccc2)[C@H]1NC(=O)C1CC1 [Example 1, N-[(2R,3S)-1-[1-(4-Fluorophenyl)-1H-indazol-5-yl]-4,4-dimethyl-5-oxo-2-phenyl-pyrrolidin-3-yl]-cyclopropanecarboxylic acid amide] | 99 | < 100 | 
2 | O=C(N[C@@H]1[C@@H](c2ccccc2)N(c2ccc3c(ccn3-c3ccc(F)cc3)c2)C(=O)C12CC2)C1CC1 (racemic) [Example 5, N-trans-(5-(1-(4-fluorophenyl)-1H-indol-5-yl)-4-oxo-6-phenyl-5-azaspiro[2.4]heptan-7-yl)cyclopropanecarboxamide] | 95 |  | 100 to 1000
3 | Cc1cnc(C(=O)N[C@@H]2[C@@H](c3ccccc3)N(c3ccc4c(cnn4-c4ccc(=O)n(C)c4)c3)C(=O)C2(C)C)s1 [Example 6, N-[(2R,3S)-4,4-Dimethyl-1-[1-(1-methyl-6-oxo-1H-pyridin-3-yl)-1H-indazol-5-yl]-5-oxo-2-phenyl-pyrrolidin-3-yl]-5-methyl-thiazole-2-carboxylic acid amide] | 97 |  | 100 to 1000
4 | O=C(N[C@@H]1[C@@H](c2ccccc2)N(c2ccc3c(cnn3-c3ccc(F)cc3)c2)C(=O)C12CC2)C1CC1 (racemic) [Example 3, N-[rac-(6R,7S)-5-[1-(4-Fluorophenyl)-1H-indazol-5-yl]-4-oxo-6-phenyl-5-azaspiro[2.4]heptan-7-yl]-cyclopropanecarboxylic acid amide] | 98 |  | < 100
5 | CC1(C)C(=O)N(c2ccc3c(cnn3-c3ccc(F)cc3)c2)[C@@H](c2ccccc2)[C@@H]1NC(=O)C1CC1 [Example 2, N-[(2S,3R)-1-[1-(4-Fluorophenyl)-1H-indazol-5-yl]-4,4-dimethyl-5-oxo-2-phenyl-pyrrolidin-3-yl]-cyclopropanecarboxylic acid amide] | 91 |  | 100 to 1000
6 | CC(F)(F)C(=O)N[C@H]1[C@H](c2ccccc2)N(c2ccc3c(cnn3-c3ccc(F)cc3)c2)C(=O)C1(C)C [Example 4, 2,2-Difluoro-N-[(2S,3R)-1-[1-(4-fluorophenyl)-1H-indazol-5-yl]-4,4-dimethyl-5-oxo-2-phenyl-pyrrolidin-3-yl]-propionamide] | 95 |  | 100 to 1000
7 | Cc1cc(C(=O)N[C@@H]2[C@@H](c3ccccc3)N(c3ccc4c(cnn4-c4ccc(=O)n(C)c4)c3)C(=O)C2(C)C)no1 [Example 7, N-((2R,3S)-4,4-dimethyl-1-(1-(1-methyl-6-oxo-1,6-dihydropyridin-3-yl)-1H-indazol-5-yl)-5-oxo-2-phenylpyrrolidin-3-yl)-5-methylisoxazole-3-carboxamide] | 96 |  | 1000 to 15000
8 | Cn1cc(-n2ncc3cc(N4C(=O)C(C)(C)[C@H](NC(=O)C(C)(F)F)[C@H]4c4ccccc4)ccc32)ccc1=O [Example 9, N-[(2R,3S)-4,4-Dimethyl-1-[1-(1-methyl-6-oxo-1H-pyridin-3-yl)-1H-indazol-5-yl]-5-oxo-2-phenyl-pyrrolidin-3-yl]-2,2-difluoro-propionamide] | 86 |  | 
